Patent publication US11919898B2, “Crystal form of azaindole derivative and use thereof” (Wuxi Life Fountain Biotech Co., Ltd, priority 2020, dated 2024)

Columns and labels:
human FGFR1 = biological target: T1, human FGFR1 (Homo sapiens, UniProt P11362); experiment: 33P isotope-labeled kinase activity assay, FGFR1; type: biochemical; conditions: ATP 5 μM
T1 construct: purchased Invitrogen PV3146
Method: Test procedure: At room temperature, the test compound was dissolved in DMSO to prepare a 10 mM solution for use. The substrate was dissolved in freshly prepared buffer, and the test kinase was added and mixed well. A solution of the test compound in DMSO was added to the mixed reaction solution using an acoustic technology (Echo550). […] After 15 min of incubation, ^33P-ATP (with an activity of 0.01 μCi/nL, the corresponding concentration is listed in Table 18) was added to start the reaction. […] The kinase activity data were expressed by the comparison of the kinase activity in the presence of the test compound with the kinase activity of the blank group (containing only DMSO), and an IC50 value was obtained by curve fitting with Prism4 software (GraphPad).

human FGFR4 = biological target: T2, human FGFR4 (Homo sapiens, UniProt P22455); experiment: 33P isotope-labeled kinase activity assay, FGFR4; type: biochemical; conditions: ATP 100 μM
T2 construct: purchased Invitrogen P3054
Method: (§1) The IC50 value was tested by ^33P isotope-labeled kinase activity assay (Reaction Biology Corp) to evaluate the inhibition of the test compounds on human FGFR1, FGFR4, and c-Met.
(§2) Buffer: 20 mM Hepes (pH 7.5), 10 mM MgCl2, 1 mM EGTA, 0.02% Brij35, 0.02 mg/ml BSA, 0.1 mMNa3VO4, 2 mM DTT, and 1% DMSO.
(§3) Test procedure: At room temperature, the test compound was dissolved in DMSO to prepare a 10 mM solution for use. The substrate was dissolved in freshly prepared buffer, and the test kinase was added and mixed well. A solution of the test compound in DMSO was added to the mixed reaction solution using an acoustic technology (Echo550). The compound concentration in the reaction solution was 1 μM, 0.25 μM, […], 0.977 nM, 0.244 nM, 0.061 nM, 0.0153 nM, 0.00381 nM, or 10 μM, 2.50 μM, 0.62 μM, 0.156 μM, 39.1 nM, 9.8 nM, 2.4 nM, 0.61 nM, 0.15 nM, and 0.038 nM, respectively. After 15 min of incubation, ^33P-ATP (with an activity of 0.01 μCi/nL, the corresponding concentration is listed in Table 18) was added to start the reaction. The supplier's catalogue number, lot number, and concentration in the reaction solution of FGFR1, FGFR4, c-Met, and substrates thereof are listed in Table 18. […]

human c-Met = biological target: T3, human c-Met (Homo sapiens, UniProt P08581); experiment: 33P isotope-labeled kinase activity assay, c-Met; type: biochemical; conditions: ATP 10 μM
T3 construct: purchased Invitrogen PV3143
Method: as §1, §2, §3

[1] = Hygroscopicity test by dynamic vapor sorption (DVS); type: physicochemical
Method: Dynamic Vapor Sorption (DVS) of the Present Invention • Instrument model: SMS DVS Intrinsic Dynamic Vapor Sorption Analyzer • Test method: A sample (10-30 mg) is tested in a DVS sample pan. Detailed DVS Parameters: • Temperature: 25° C. • Equilibration: dm/dt=0.002%/min (Minimum: 10 min, Maximum: 180 min) • RH (%) test interval: 10 (0-90%), 5 (90-95%) • RH (%) test interval range: 0-95-0 Hygroscopicity evaluations are classified as follows: [table] Note: AW % represents the hygroscopic weight gain of the test product at 25° C./80% RH. Experimental Method: • 10-30 mg of the crystal form A of the compound of Formula (II) was placed in the DVS sample pan and tested. Experimental Method: • 10-30 mg of the crystal form G of the compound of Formula (III) was placed in the DVS sample pan and tested. Experimental Method: • 10-30 mg of the crystal form J of the compound of Formula (IV) was placed in the DVS sample pan and tested.

[2] = Solid stability test (high temperature, high humidity, light, accelerated); type: physicochemical
Method: High Performance Liquid Chromatography (HPLC) of the Present Invention [table] Experimental method: 12 parallel samples of the crystal form A of the compound of formula (II) were weighed in an amount of about 1 g each. Each sample was fed to a double-layer LDPE bag, and each layer of the LDPE bag was tied and sealed. […] The photostability experiment was carried out as described in the Chinese Pharmacopoeia and ICH Q1B. The samples were irradiated with visible light and UV light.

[3] = Stability comparison of crystal form A and crystal form B (slurry in ethanol, XRPD); type: physicochemical; conditions: from conversion in ethanol, 16 hrs
Excerpt: 35 g of the crystal form B of the compound of Formula (II) was weighed, added to ethanol, and stirred for 16 hrs.

[4] = Acceleration experiment (40° C./relative humidity 75%, open), 1 month
[5] = Acceleration experiment (40° C./relative humidity 75%, open), 2 month
[6] = Acceleration experiment (40° C./relative humidity 75%, open), 3 month
[7] = High humidity (room temperature/relative humidity 92.5%, open), Day 5
[8] = High humidity (room temperature/relative humidity 92.5%, open), Day 10
[9] = High humidity (room temperature/relative humidity 92.5%, open), Day 30
[10] = High temperature (60° C., open), Day 5
[11] = High temperature (60° C., open), Day 10
[12] = High temperature (60° C., open), Day 30
[13] = Light irradiation (1.2 × 10^6 Lux·hr / near ultraviolet 200 w·hr/m^2, open 10 days), light irradiation sample
[14] = Light irradiation test, sample in the dark

T3 sequence (P08581 25-1390): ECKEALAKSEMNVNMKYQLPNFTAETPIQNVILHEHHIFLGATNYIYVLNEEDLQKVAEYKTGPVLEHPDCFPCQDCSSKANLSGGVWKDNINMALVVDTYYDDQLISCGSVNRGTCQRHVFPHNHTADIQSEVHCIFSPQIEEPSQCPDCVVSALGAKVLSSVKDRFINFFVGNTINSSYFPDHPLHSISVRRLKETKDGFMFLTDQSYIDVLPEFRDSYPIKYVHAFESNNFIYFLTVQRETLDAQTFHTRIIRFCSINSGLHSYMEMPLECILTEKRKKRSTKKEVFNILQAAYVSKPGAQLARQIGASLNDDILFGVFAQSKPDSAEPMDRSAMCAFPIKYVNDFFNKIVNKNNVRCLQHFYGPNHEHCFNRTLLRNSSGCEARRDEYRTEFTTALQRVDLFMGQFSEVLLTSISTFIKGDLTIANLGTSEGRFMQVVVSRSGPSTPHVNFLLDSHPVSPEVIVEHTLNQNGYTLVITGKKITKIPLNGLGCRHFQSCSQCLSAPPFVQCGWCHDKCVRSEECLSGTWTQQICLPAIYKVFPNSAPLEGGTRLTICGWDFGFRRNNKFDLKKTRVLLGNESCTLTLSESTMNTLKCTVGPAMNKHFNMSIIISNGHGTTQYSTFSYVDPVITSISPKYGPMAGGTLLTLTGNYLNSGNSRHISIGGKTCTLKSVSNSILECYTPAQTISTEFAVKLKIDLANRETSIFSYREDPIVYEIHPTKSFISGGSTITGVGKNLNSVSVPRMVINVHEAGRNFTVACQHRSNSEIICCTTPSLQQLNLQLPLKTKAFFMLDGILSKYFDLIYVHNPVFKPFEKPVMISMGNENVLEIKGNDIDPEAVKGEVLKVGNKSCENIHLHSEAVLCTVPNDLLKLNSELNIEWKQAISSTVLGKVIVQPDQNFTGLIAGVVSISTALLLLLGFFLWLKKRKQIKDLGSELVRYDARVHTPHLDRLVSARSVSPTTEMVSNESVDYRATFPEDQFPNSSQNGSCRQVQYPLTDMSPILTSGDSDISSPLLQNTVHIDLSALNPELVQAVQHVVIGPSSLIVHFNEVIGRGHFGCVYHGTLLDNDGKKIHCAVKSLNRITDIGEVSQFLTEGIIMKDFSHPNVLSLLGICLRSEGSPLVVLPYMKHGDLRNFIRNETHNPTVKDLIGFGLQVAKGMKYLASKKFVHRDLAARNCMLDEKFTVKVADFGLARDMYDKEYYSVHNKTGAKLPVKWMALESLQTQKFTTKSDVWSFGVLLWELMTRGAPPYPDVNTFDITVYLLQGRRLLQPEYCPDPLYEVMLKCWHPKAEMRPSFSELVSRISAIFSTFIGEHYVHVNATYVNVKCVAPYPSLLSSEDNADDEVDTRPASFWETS
T2 sequence (P22455 22-802): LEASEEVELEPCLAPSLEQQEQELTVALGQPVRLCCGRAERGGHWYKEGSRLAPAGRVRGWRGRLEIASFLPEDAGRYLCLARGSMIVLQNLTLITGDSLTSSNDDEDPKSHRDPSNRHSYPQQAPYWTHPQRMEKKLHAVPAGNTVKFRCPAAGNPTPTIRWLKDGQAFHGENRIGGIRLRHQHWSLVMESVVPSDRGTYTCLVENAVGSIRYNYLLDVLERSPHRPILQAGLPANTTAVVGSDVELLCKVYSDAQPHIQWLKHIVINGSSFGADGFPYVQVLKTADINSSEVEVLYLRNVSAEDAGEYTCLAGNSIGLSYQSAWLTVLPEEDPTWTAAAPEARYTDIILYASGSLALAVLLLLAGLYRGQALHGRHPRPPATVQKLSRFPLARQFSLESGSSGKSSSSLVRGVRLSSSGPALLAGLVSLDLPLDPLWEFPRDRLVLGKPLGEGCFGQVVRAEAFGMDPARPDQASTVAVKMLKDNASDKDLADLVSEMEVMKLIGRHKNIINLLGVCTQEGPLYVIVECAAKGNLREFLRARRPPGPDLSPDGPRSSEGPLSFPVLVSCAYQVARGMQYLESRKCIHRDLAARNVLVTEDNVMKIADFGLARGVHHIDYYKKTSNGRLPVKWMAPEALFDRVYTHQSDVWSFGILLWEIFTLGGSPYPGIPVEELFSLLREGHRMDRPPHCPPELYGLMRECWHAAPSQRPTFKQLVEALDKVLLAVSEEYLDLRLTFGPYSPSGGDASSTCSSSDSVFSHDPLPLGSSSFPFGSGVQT
T1 sequence (P11362 22-822): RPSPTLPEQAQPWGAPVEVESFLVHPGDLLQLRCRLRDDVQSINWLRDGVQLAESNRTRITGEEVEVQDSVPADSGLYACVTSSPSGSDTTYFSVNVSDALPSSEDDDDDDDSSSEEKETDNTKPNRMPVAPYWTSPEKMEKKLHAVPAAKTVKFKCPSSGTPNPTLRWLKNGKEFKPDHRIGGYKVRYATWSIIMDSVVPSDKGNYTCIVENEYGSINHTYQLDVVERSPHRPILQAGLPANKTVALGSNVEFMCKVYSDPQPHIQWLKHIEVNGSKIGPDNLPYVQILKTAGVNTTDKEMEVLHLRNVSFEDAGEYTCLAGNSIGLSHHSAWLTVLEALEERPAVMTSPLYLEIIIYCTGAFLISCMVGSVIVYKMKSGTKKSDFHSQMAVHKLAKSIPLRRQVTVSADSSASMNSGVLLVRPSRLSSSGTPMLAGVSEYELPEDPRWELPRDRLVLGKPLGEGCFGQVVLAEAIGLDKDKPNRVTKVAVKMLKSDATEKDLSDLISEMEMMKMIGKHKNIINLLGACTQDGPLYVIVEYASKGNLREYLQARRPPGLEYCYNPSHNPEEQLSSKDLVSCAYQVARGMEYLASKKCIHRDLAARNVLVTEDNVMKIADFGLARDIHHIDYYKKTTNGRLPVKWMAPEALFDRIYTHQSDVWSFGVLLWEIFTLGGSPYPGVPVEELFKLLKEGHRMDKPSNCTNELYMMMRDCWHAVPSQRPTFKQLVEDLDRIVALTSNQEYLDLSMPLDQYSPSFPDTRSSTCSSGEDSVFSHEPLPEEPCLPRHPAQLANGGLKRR

COc1cc(OC)c(F)c(Cc2c[nH]c3ncc(-c4cnn(CCO)c4)cc23)c1F.Cl
IC50 (human FGFR1): 0.2 nM
IC50 (human FGFR4): 1.49 nM
IC50 (human c-Met): 15.9 nM
ΔW, hygroscopic weight gain ([1]; 25° C. and 80% RH, DVS): 0.3710%
Classification of hygroscopicity ([1]; 25° C./80% RH): slightly hygroscopic
Content (%) [2, 4]: 99.7%
Total impurity (%) [2, 4]: 0.67%
Content (%) [2, 5]: 99.7%
Total impurity (%) [2, 5]: 0.69%
Content (%) [2, 6]: 99.9%
Total impurity (%) [2, 6]: 0.68%
Content (%) ([2]; Day 0): 99.8%
Total impurity (%) ([2]; Day 0): 0.71%
Content (%) [2, 7]: 99.6%
Total impurity (%) [2, 7]: 0.75%
Content (%) [2, 8]: 99.8%
Total impurity (%) [2, 8]: 0.71%
Content (%) [2, 9]: 98.9%
Total impurity (%) [2, 9]: 0.65%
Content (%) [2, 10]: 99.6%
Total impurity (%) [2, 10]: 0.78%
Content (%) [2, 11]: 99.9%
Total impurity (%) [2, 11]: 0.76%
Content (%) [2, 12]: 98.5%
Total impurity (%) [2, 12]: 0.80%
Content (%) [2, 13]: 99.8%
Total impurity (%) [2, 13]: 0.76%
Content (%) [2, 14]: 99.8%
Total impurity (%) [2, 14]: 0.79%
Solid stability in words ([2]; accelerated conditions and affecting factors): very stable, and no obvious unknown impurities are formed
Relative stability of crystal forms [3]: more stable than the crystal form B of the compound of Formula (II)
